Assay results published in US20250011368A1, “DLL3 TARGETING PEPTIDES AND CONSTRUCTS THEREOF” (MARIANA ONCOLOGY INC., priority 2023, published 2025).
Bridge positions count the residues as written; N and C are the ends. Square brackets hold non-standard residues; d marks the D form. Peptide text beside a SMILES is read from it. * marks the point of attachment. DOTA = O=C(O)CN1CCN(CC(=O)O)CCN(CC(=O)*)CCN(CC(=O)O)CC1; Phe(4-CF3) = N[C@@H](Cc1ccc(C(F)(F)F)cc1)C(=O)O; Trp(5-F) = N[C@@H](Cc1c[nH]c2ccc(F)cc12)C(=O)O; Phe(2-CF3) = N[C@@H](Cc1ccccc1C(F)(F)F)C(=O)O; Trp(7-aza) = N[C@@H](Cc1c[nH]c2ncccc12)C(=O)O; Pro(trans-4-F) = O=C(O)[C@@H]1C[C@@H](F)CN1; Phe(4-F) = N[C@@H](Cc1ccc(F)cc1)C(=O)O; Gly(4-THP) = N[C@H](C(=O)O)C1CCOCC1; Nva(3-Et) = CCC(CC)[C@H](N)C(=O)O; Cha = N[C@@H](CC1CCCCC1)C(=O)O; Cba = N[C@@H](CC1CCC1)C(=O)O; Chg = N[C@H](C(=O)O)C1CCCCC1; Tle = CC(C)(C)[C@H](N)C(=O)O; Nle = CCCC[C@H](N)C(=O)O; Aze = O=C(O)[C@@H]1CCN1

Molecular target: T1, human DLL3 (Homo sapiens, UniProt Q9NYJ7)
T1 sequence (Q9NYJ7 27-618): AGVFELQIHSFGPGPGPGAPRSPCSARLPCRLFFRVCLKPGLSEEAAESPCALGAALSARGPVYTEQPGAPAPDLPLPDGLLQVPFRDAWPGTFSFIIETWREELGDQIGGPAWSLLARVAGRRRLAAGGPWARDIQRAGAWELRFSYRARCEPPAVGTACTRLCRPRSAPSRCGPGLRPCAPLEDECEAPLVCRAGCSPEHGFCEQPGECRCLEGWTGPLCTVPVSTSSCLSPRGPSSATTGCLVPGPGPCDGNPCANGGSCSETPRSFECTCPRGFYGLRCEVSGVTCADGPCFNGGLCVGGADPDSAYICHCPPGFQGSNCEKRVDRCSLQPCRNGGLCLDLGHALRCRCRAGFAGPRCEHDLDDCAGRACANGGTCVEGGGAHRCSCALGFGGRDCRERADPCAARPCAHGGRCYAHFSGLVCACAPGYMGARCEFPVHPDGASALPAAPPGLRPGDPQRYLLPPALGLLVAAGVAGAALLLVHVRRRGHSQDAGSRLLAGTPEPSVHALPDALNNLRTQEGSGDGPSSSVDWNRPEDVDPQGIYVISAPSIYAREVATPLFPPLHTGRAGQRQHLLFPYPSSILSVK
Test: Affinity determination by Surface Plasmon Resonance (SPR)
Type: binding
Conditions: 25° C., biotinylated human DLL3 immobilized on streptavidin sensor chip, 1:1 binding model; read-out: SPR KD
How it was run: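 Biotinylated human DLL3 was captured on a streptavidin chip with a reference surface. Compounds at several concentrations were injected at 100 μL/minute in phosphate buffer (137 mM NaCl, 2.7 mM KCl, 0.05% P20, 2% DMSO). Affinity and kinetics came from 1:1 model fits of the sensorgrams.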

Kd, 1 to 10 nM:
CC(=O)N[C@@H](Cc1c[nH]c2ccc(F)cc12)C(=O)N[C@H](C(=O)N[C@H](C(=O)N[C@H]1CSSC[C@@H](C(=O)N[C@@H](Cc2c[nH]c3ncccc23)C(=O)N2C[C@H](F)C[C@H]2C(=O)N[C@H](CCCCNC(=O)CN2CCN(CC(=O)O)CCN(CC(=O)O)CCN(CC(=O)O)CC2)C(N)=O)NC(=O)[C@H](CC(=O)O)NC(=O)[C@H](Cc2cnc[nH]2)NC(=O)[C@H](Cc2ccc(F)cc2)NC(=O)[C@H](CC(N)=O)NC(=O)[C@H](CC(N)=O)NC1=O)C1CCCCC1)[C@@H](C)O [compound 135, Ac-(5Fluoro-W)-T-(Chg)-C(3)-N-N-(4Fluoro-F)-H-D-C(3)-(7Aza-W)-(trans4Fluoro-P)-[D-Lys(DOTA)]-NH2] (Ac-[Trp(5-F)]T[Chg]CNN[Phe(4-F)]HDC[Trp(7-aza)][Pro(trans-4-F)][dK](DOTA)-NH2; disulfide 4-10)
CC(=O)N[C@@H](Cc1c[nH]c2ccc(F)cc12)C(=O)N[C@H](C(=O)N[C@@H](Cc1ccccc1C(F)(F)F)C(=O)N[C@H]1CSSC[C@@H](C(=O)N[C@@H](Cc2c[nH]c3ncccc23)C(=O)N2C[C@H](F)C[C@H]2C(=O)N[C@H](CCCCNC(=O)CN2CCN(CC(=O)O)CCN(CC(=O)O)CCN(CC(=O)O)CC2)C(N)=O)NC(=O)[C@H](CC(=O)O)NC(=O)[C@H](Cc2cnc[nH]2)NC(=O)[C@H](Cc2ccc(F)cc2)NC(=O)[C@H](CC(N)=O)NC(=O)[C@H](CC(N)=O)NC1=O)[C@@H](C)O [compound 136, Ac-(5Fluoro-W)-T-(2CF3-F)-C(3)-N-N-(4Fluoro-F)-H-D-C(3)-(7Aza-W)-(trans4Fluoro-P)-[D-Lys(DOTA)]-NH2] (Ac-[Trp(5-F)]T[Phe(2-CF3)]CNN[Phe(4-F)]HDC[Trp(7-aza)][Pro(trans-4-F)][dK](DOTA)-NH2; disulfide 4-10)
CC(=O)N[C@@H](Cc1c[nH]c2ccc(F)cc12)C(=O)N[C@H](C(=O)N[C@H](C(=O)N[C@H]1CSSC[C@@H](C(=O)N[C@@H](Cc2c[nH]c3ncccc23)C(=O)N2CC[C@H]2C(=O)N[C@H](CCCCNC(=O)CN2CCN(CC(=O)O)CCN(CC(=O)O)CCN(CC(=O)O)CC2)C(N)=O)NC(=O)[C@H](CC(=O)O)NC(=O)[C@H](Cc2cnc[nH]2)NC(=O)[C@H](Cc2ccc(C(F)(F)F)cc2)NC(=O)[C@H](CC(N)=O)NC(=O)[C@H](CC(N)=O)NC1=O)C(C)(C)C)[C@@H](C)O [compound 137, Ac-(5Fluoro-W)-T-(Tbg)-C(3)-N-N-(4CF3-F)-H-D-C(3)-(7Aza-W)-(Aze)-[D-Lys(DOTA)]-NH2] (Ac-[Trp(5-F)]T[Tle]CNN[Phe(4-CF3)]HDC[Trp(7-aza)][Aze][dK](DOTA)-NH2; disulfide 4-10)
CC(=O)N[C@@H](Cc1c[nH]c2ccc(F)cc12)C(=O)N[C@H](C(=O)N[C@H](C(=O)N[C@H]1CSSC[C@@H](C(=O)N[C@@H](Cc2c[nH]c3ncccc23)C(=O)N2CC[C@H]2C(=O)N[C@H](CCCCNC(=O)CN2CCN(CC(=O)O)CCN(CC(=O)O)CCN(CC(=O)O)CC2)C(N)=O)NC(=O)[C@H](CC(=O)O)NC(=O)[C@H](Cc2cnc[nH]2)NC(=O)[C@H](Cc2ccc(C(F)(F)F)cc2)NC(=O)[C@H](CC(N)=O)NC(=O)[C@H](CC(N)=O)NC1=O)C1CCOCC1)[C@@H](C)O [compound 139, Ac-(5Fluoro-W)-T-(THPG)-C(3)-N-N-(4CF3-F)-H-D-C(3)-(7Aza-W)-(Aze)-[D-Lys(DOTA)]-NH2] (Ac-[Trp(5-F)]T[Gly(4-THP)]CNN[Phe(4-CF3)]HDC[Trp(7-aza)][Aze][dK](DOTA)-NH2; disulfide 4-10)
CC(=O)N[C@@H](Cc1c[nH]c2ccc(F)cc12)C(=O)N[C@H](C(=O)N[C@@H](CC1CCCCC1)C(=O)N[C@H]1CSSC[C@@H](C(=O)N[C@@H](Cc2c[nH]c3ncccc23)C(=O)N2CC[C@H]2C(=O)N[C@H](CCCCNC(=O)CN2CCN(CC(=O)O)CCN(CC(=O)O)CCN(CC(=O)O)CC2)C(N)=O)NC(=O)[C@H](CC(=O)O)NC(=O)[C@H](Cc2cnc[nH]2)NC(=O)[C@H](Cc2ccc(C(F)(F)F)cc2)NC(=O)[C@H](CC(N)=O)NC(=O)[C@H](CC(N)=O)NC1=O)[C@@H](C)O [compound 141, Ac-(5Fluoro-W)-T-(CHA)-C(3)-N-N-(4CF3-F)-H-D-C(3)-(7Aza-W)-(Aze)-[D-Lys(DOTA)]-NH2] (Ac-[Trp(5-F)]T[Cha]CNN[Phe(4-CF3)]HDC[Trp(7-aza)][Aze][dK](DOTA)-NH2; disulfide 4-10)
CC(=O)N[C@@H](Cc1c[nH]c2ccc(F)cc12)C(=O)N[C@H](C(=O)N[C@@H](CC1CCC1)C(=O)N[C@H]1CSSC[C@@H](C(=O)N[C@@H](Cc2c[nH]c3ncccc23)C(=O)N2CC[C@H]2C(=O)N[C@H](CCCCNC(=O)CN2CCN(CC(=O)O)CCN(CC(=O)O)CCN(CC(=O)O)CC2)C(N)=O)NC(=O)[C@H](CC(=O)O)NC(=O)[C@H](Cc2cnc[nH]2)NC(=O)[C@H](Cc2ccc(C(F)(F)F)cc2)NC(=O)[C@H](CC(N)=O)NC(=O)[C@H](CC(N)=O)NC1=O)[C@@H](C)O [compound 142, Ac-(5Fluoro-W)-T-(CBA)-C(3)-N-N-(4CF3-F)-H-D-C(3)-(7Aza-W)-(Aze)-[D-Lys(DOTA)]-NH2] (Ac-[Trp(5-F)]T[Cba]CNN[Phe(4-CF3)]HDC[Trp(7-aza)][Aze][dK](DOTA)-NH2; disulfide 4-10)
CC(=O)N[C@@H](Cc1c[nH]c2ccc(F)cc12)C(=O)N[C@H](C(=O)N[C@H](C(=O)N[C@H]1CSSC[C@@H](C(=O)N[C@@H](Cc2c[nH]c3ncccc23)C(=O)N2CC[C@H]2C(=O)N[C@H](CCCCNC(=O)CN2CCN(CC(=O)O)CCN(CC(=O)O)CCN(CC(=O)O)CC2)C(N)=O)NC(=O)[C@H](CC(=O)O)NC(=O)[C@H](Cc2cnc[nH]2)NC(=O)[C@H](Cc2ccc(C(F)(F)F)cc2)NC(=O)[C@H](CC(N)=O)NC(=O)[C@H](CC(N)=O)NC1=O)C1CCCCC1)[C@@H](C)O [compound 143, Ac-(5Fluoro-W)-T-(Chg)-C(3)-N-N-(4CF3-F)-H-D-C(3)-(7Aza-W)-(Aze)-[D-Lys(DOTA)]-NH2] (Ac-[Trp(5-F)]T[Chg]CNN[Phe(4-CF3)]HDC[Trp(7-aza)][Aze][dK](DOTA)-NH2; disulfide 4-10)
CC(=O)N[C@@H](Cc1c[nH]c2ccc(F)cc12)C(=O)N[C@H](C(=O)N[C@@H](Cc1ccccc1C(F)(F)F)C(=O)N[C@H]1CSSC[C@@H](C(=O)N[C@@H](Cc2c[nH]c3ncccc23)C(=O)N2CC[C@H]2C(=O)N[C@H](CCCCNC(=O)CN2CCN(CC(=O)O)CCN(CC(=O)O)CCN(CC(=O)O)CC2)C(N)=O)NC(=O)[C@H](CC(=O)O)NC(=O)[C@H](Cc2cnc[nH]2)NC(=O)[C@H](Cc2ccc(C(F)(F)F)cc2)NC(=O)[C@H](CC(N)=O)NC(=O)[C@H](CC(N)=O)NC1=O)[C@@H](C)O [compound 144, Ac-(5Fluoro-W)-T-(2CF3-F)-C(3)-N-N-(4CF3-F)-H-D-C(3)-(7Aza-W)-(Aze)-[D-Lys(DOTA)]-NH2] (Ac-[Trp(5-F)]T[Phe(2-CF3)]CNN[Phe(4-CF3)]HDC[Trp(7-aza)][Aze][dK](DOTA)-NH2; disulfide 4-10)

Kd, 10 to 100 nM:
CCC(CC)[C@H](NC(=O)[C@@H](NC(=O)[C@H](Cc1c[nH]c2ccc(F)cc12)NC(C)=O)[C@@H](C)O)C(=O)N[C@H]1CSSC[C@@H](C(=O)N[C@@H](Cc2c[nH]c3ncccc23)C(=O)N2CC[C@H]2C(=O)N[C@H](CCCCNC(=O)CN2CCN(CC(=O)O)CCN(CC(=O)O)CCN(CC(=O)O)CC2)C(N)=O)NC(=O)[C@H](CC(=O)O)NC(=O)[C@H](Cc2c[nH]cn2)NC(=O)[C@H](Cc2ccc(C(F)(F)F)cc2)NC(=O)[C@H](CC(N)=O)NC(=O)[C@H](CC(N)=O)NC1=O [compound 138, Ac-(5Fluoro-W)-T-(Env)-C(3)-N-N-(4CF3-F)-H-D-C(3)-(7Aza-W)-(Aze)-[D-Lys(DOTA)]-NH2] (Ac-[Trp(5-F)]T[Nva(3-Et)]CNN[Phe(4-CF3)]HDC[Trp(7-aza)][Aze][dK](DOTA)-NH2; disulfide 4-10)
CCCC[C@H](NC(=O)[C@@H](NC(=O)[C@H](Cc1c[nH]c2ccc(F)cc12)NC(C)=O)[C@@H](C)O)C(=O)N[C@H]1CSSC[C@@H](C(=O)N[C@@H](Cc2c[nH]c3ncccc23)C(=O)N2CC[C@H]2C(=O)N[C@H](CCCCNC(=O)CN2CCN(CC(=O)O)CCN(CC(=O)O)CCN(CC(=O)O)CC2)C(N)=O)NC(=O)[C@H](CC(=O)O)NC(=O)[C@H](Cc2cnc[nH]2)NC(=O)[C@H](Cc2ccc(C(F)(F)F)cc2)NC(=O)[C@H](CC(N)=O)NC(=O)[C@H](CC(N)=O)NC1=O [compound 140, Ac-(5Fluoro-W)-T-(Nle)-C(3)-N-N-(4CF3-F)-H-D-C(3)-(7Aza-W)-(Aze)-[D-Lys(DOTA)]-NH2] (Ac-[Trp(5-F)]T[Nle]CNN[Phe(4-CF3)]HDC[Trp(7-aza)][Aze][dK](DOTA)-NH2; disulfide 4-10)
